Results taken from US20050245540A1, “New methods” (FUJISAWA PHARMACEUTICAL CO., LTD., priority 2003, published 2005).
Counter-ions that a name gives are not always drawn.

Columns and labels:
[1] = test system: calvaria from 5-day-old ICR mice; assay: Assay using mouse calvarial organ culture (calvaria bone formation assay); format: cell-based; settings: test compound 1.0 × 10^−5 M added in combination with TGF-beta1; new bone area by histomorphometry after 1 week culture
Protocol: Assay using Mouse Calvarial Organ Culture
Calvaria bone formation assay was essentially performed as described by Bonewald et al. (Endocrinology 139:3178, 1998). The calvaria from 5-day-old ICR mice were excised and cut in half along the sagittal suture. Each half of the calvaria was placed on a stainless steel grid in a 12-well tissue culture dish. Each well contained BGJ media (Sigma) supplemented with 0.1% bovine serum albumine, to which the test compound was added in combination with TGF-beta1. The media was changed 24 and 96 hrs. Calvaria were maintained in humidified air (5% CO2) at 37° C. for 1 week. The calvaria were then fixed overnight in formalin, decalcified in EDTA, and were then embedded in paraffin wax. Calvaria sections were stained with hematoxylin and eosin. Histomorphometric analysis was performed using the Image-pro Plus (Trade mark, Media Cybernetics). The sum of the new bone area was determined. Rate of increase was calculated in the following; [formula] • Calvaria area is calculated using Histomorphometric analysis. • Ats: Score of area in case of addition of test compound and TGF beta1 • Atg: Score of area in case of addition of TGF beta1 • Ac: Score of area in case of no addition (Control)

Row | melting point [°C] | SMILES | Rate of increase [1] [%]
1 | – | Cc1ccc(Cn2cc(C3CCNCC3)c3ccccc32)cc1C [9-(5)] | 180
2 | – | COC(=O)c1cccc(Cn2cc(C3CCNCC3)c3ccccc32)c1 [9-(18)] | 158
3 | – | CC(C)(C)OC(=O)NCCCCCCCN1CCC(c2c[nH]c3ccc(O)cc23)CC1 [40-(3), 3-[1-(7-tert-butoxycarbonylaminoheptyl)-4-piperidinyl]-5-hydroxy-1H-indole] | 140
4 | – | COc1ccc(Cn2cc(C3CCN(C(=O)OC(C)(C)C)CC3)c3ccc(C#N)cc32)cc1Cl [46-(4)] | 203
5 | – | COc1ccc(Cn2cc(C3CCNCC3)c3ccc(C#N)cc32)cc1Cl.Cl [49-(6), 1-(3-Chloro-4-methoxybenzyl)-6-cyano-3-(4-piperidinyl)-1H-indole hydrochloride] | 112
6 | 159 to 160 | CC(C)(C)OC(=O)N1CCC(c2c[nH]c3ccccc23)CC1 [Example 1, tert-butyl 4-(1H-indol-3-yl)-1-piperidinecarboxylate] | –
7 | 136 to 137 | CC(C)(C)OC(=O)N1CCC(c2cn(S(C)(=O)=O)c3ccccc23)CC1 [Example 4, tert-butyl 4-[1-(methylsulfonyl)-1H-indol-3-yl]-1-piperidinecarboxylate] | –
8 | – | CS(=O)(=O)c1ccc(Cn2cc(C3CCNCC3)c3ccccc32)cc1 [Example 7, 1-[4-(methylsulfonyl)benzyl]-3-(4-piperidinyl)-1H-indole hydrochloride] | 206
